Data on four molecules can be found in patent US20230233569A1 (Revolution Medicines, Inc., priority 2020, published 2023).

The structures appear in SMILES notation. Where two headings read alike, the source gives them in different places.

The target in one test is KRAS G13D (Homo sapiens, UniProt P01116+P62937, G13D). The test can be described thus: Disruption of BRAF RBD interaction with Ras (FRET / MOA assay, with Cyclophilin A). The class given is biochemical. The procedure, abridged: (§1)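 TR-FRET readout: a drop in ratio relative to DMSO wells marks disruption of the K-Ras:BRAF RBD complex via compound-induced K-Ras–Cyclophilin A ternary complex. Dosing used ten 3-fold steps from 30 μM final, 3 h at 25 °C, then Eu-anti-His 10 nM plus APC-anti-GST 50 nM for another 1.5 h. Values are IC50s.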
KRAS G13D, sequence (P01116 1-169 isoform P01116-2 G13D limits assumed): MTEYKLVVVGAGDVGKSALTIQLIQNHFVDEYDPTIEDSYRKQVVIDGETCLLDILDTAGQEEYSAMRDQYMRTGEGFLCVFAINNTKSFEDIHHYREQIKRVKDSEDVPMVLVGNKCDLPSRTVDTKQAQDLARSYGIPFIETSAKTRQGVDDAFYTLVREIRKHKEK
KRAS G13D, sequence (P62937 whole entry): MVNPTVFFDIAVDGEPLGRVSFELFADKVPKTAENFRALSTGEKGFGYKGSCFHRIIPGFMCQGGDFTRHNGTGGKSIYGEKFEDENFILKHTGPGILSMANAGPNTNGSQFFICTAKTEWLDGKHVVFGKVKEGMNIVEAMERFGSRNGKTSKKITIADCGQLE

For another test, the target named is NRAS G12C (Homo sapiens, UniProt P01111+P62937, G12C). The test is described as above. It counts as biochemical.
NRAS G12C, sequence (P01111 whole entry G12C): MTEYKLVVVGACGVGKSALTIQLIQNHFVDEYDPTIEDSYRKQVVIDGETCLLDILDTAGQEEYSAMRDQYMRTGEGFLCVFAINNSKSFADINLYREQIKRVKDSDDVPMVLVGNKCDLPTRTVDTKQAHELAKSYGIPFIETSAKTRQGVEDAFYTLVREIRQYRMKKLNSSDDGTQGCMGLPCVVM
NRAS G12C, sequence (P62937 whole entry): as the sequence (P62937 whole entry) above
Another test concerns the target KRAS G12D (Homo sapiens, UniProt P01116+P62937, G12D). The test is described as above. It counts as biochemical. The procedure, abridged:
as §1

For the next test, the target named is KRAS G12S (Homo sapiens, UniProt P01116+P62937, G12S). The test is described as above. It counts as biochemical. The procedure, abridged: as §1
KRAS G12S, sequence (P01116 1-169 isoform P01116-2 G12S limits assumed): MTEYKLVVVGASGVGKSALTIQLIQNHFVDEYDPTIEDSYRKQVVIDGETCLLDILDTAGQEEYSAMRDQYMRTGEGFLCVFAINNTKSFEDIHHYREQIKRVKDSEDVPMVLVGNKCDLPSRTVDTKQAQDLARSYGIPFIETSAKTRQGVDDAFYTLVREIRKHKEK
KRAS G12S, sequence (P62937 whole entry): as the sequence (P62937 whole entry) above
A further test has as its target KRAS G13C (Homo sapiens, UniProt P01116+P62937, G13C). The test is described as above. It counts as biochemical. The procedure, abridged: as §1
For another test, the target named is KRAS G12V (Homo sapiens, UniProt P01116+P62937, G12V). The description is as above. It counts as biochemical. The procedure, abridged: as §1
KRAS G12V, sequence (P01116 1-169 isoform P01116-2 G12V limits assumed): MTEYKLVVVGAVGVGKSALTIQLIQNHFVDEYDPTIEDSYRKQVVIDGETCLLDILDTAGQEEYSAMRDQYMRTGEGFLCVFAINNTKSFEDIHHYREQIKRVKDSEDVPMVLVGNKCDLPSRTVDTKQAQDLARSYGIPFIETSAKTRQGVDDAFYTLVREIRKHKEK
KRAS G12V, sequence (P62937 whole entry): as the sequence (P62937 whole entry) above
A further test addresses KRAS G12C (Homo sapiens, UniProt P01116+P62937, G12C). The description is as above. It counts as biochemical. The procedure, abridged:
as §1

The target in another test is KRAS WT (Homo sapiens, UniProt P01116+P62937). The description is as above. It counts as biochemical. The procedure, abridged:
as §1

Another test addresses KRAS Q61H (Homo sapiens, UniProt P01116+P62937, Q61H). Described as above. It counts as biochemical. The procedure, abridged: (§2)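 IC50 reflects compound-driven Ras:Cyclophilin A ternary complex displacing BRAF RBD, read as lowered TR-FRET ratio relative to DMSO after Eu anti-His (10 nM) and APC anti-GST (50 nM) detection for 1.5 h. Prior incubation 3 h, 25° C, with 12.5 nM GMPPNP-loaded Ras, 50 nM BRAF RBD, 25 μM Cyclophilin A; top compound 30 μM.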

Another test has as its target NRAS WT (Homo sapiens, UniProt P01111+P62937). The description is as above. It counts as biochemical. The procedure, abridged: as §2
In another test the target is NRAS Q61K (Homo sapiens, UniProt P01111+P62937, Q61K). The test is described as above. The class given is biochemical. The procedure, abridged:
as §2

Another test addresses NRAS Q61R (Homo sapiens, UniProt P01111+P62937, Q61R). The description is as above. It counts as biochemical. The procedure, abridged: as §2
The next test has as its system NCI-H358 (K-Ras G12C). The test can be described thus: CellTiter-Glo cell viability assay, 5-day treatment. The class given is cell-based. The following applies: Homo sapiens, NCI-H358, 120 h, 5-day treatment; read-out: H358 Cell Viability assay data (K-Ras G12C, IC50). The procedure, abridged:
(§3)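 Compounds were dispensed directly onto seeded cells and incubated for 5 days, then plates were equilibrated to room temperature for about 30 minutes before luminescence reading. Signals were expressed as percent of the mean DMSO control and fitted with a four-parameter logistic curve.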
(In general: ATP-based viability assays read luminescence as a measure of living cells.)

The next test concerns Capan-1 (K-Ras G12V). The test is described as above. It counts as cell-based. The note with it: Homo sapiens, CAPAN-1, 120 h, 5-day treatment; read-out: Capan-1 Cell Viability assay data (K-Ras G12V, IC50). The procedure, abridged:
as §3

[1] abbreviates: KRAS G13D, read-out: KRAS G13D FRET data IC50.
[2] abbreviates: NRAS G12C, read-out: NRAS G12C FRET data IC50.
[3] abbreviates: read-out: KRAS G12D FRET data, IC50.
Where [4] appears, read: read-out: KRAS G12S FRET data, IC50.
Where [5] appears, read: read-out: KRAS G13C FRET data, IC50.
The mark [6] stands for this setting: KRAS G12V, read-out: KRAS G12V FRET data IC50.
Setting [7] is: read-out: KRAS G12C FRET data, IC50.
[8] abbreviates: KRAS WT, read-out: KRAS WT FRET data IC50.
Setting [9] is: KRAS Q61H, read-out: KRAS Q61H FRET data IC50.
Where [10] appears, read: NRAS WT, read-out: NRAS WT FRET data IC50.
Where [11] appears, read: NRAS Q61K, read-out: NRAS Q61K FRET data IC50.
[12] abbreviates: NRAS Q61R, read-out: NRAS Q61R FRET data IC50.

KRAS G12C, sequence (P01116 1-169 isoform P01116-2 G12C): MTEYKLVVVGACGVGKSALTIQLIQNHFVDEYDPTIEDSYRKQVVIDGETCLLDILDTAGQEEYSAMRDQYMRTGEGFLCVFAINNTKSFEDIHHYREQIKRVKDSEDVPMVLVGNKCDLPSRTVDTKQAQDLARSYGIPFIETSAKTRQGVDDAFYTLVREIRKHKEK
KRAS G12C, sequence (P62937 whole entry): as the sequence (P62937 whole entry) above
KRAS G13C, sequence (P01116 1-169 isoform P01116-2 G13C): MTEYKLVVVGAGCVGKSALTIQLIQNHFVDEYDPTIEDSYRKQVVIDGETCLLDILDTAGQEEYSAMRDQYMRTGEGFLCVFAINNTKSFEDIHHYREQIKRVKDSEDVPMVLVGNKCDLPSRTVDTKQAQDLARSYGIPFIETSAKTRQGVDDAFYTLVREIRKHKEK
KRAS G13C, sequence (P62937 whole entry): as the sequence (P62937 whole entry) above
KRAS WT, sequence (P01116 1-169 isoform P01116-2 limits assumed): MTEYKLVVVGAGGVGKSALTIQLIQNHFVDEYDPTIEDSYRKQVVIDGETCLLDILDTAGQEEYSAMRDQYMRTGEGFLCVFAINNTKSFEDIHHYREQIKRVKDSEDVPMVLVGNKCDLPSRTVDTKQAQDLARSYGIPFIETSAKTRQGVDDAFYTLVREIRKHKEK
KRAS WT, sequence (P62937 whole entry): as the sequence (P62937 whole entry) above
NRAS Q61R, sequence (P01111 whole entry Q61R): as the sequence (P01111 whole entry G12C) above, with C12G, Q61R counted along it
NRAS Q61R, sequence (P62937 whole entry): as the sequence (P62937 whole entry) above
NRAS Q61K, sequence (P01111 whole entry Q61K): as the sequence (P01111 whole entry G12C) above, with C12G, Q61K counted along it
NRAS Q61K, sequence (P62937 whole entry): as the sequence (P62937 whole entry) above
KRAS G12D, sequence (P01116 1-169 isoform P01116-2 G12D limits assumed): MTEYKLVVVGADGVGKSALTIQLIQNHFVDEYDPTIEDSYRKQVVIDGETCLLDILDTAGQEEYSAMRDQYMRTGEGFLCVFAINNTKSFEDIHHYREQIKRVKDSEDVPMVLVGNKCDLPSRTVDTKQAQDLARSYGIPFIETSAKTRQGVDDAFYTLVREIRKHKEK
KRAS G12D, sequence (P62937 whole entry): as the sequence (P62937 whole entry) above
KRAS Q61H, sequence (P01116 1-169 isoform P01116-2 Q61H limits assumed): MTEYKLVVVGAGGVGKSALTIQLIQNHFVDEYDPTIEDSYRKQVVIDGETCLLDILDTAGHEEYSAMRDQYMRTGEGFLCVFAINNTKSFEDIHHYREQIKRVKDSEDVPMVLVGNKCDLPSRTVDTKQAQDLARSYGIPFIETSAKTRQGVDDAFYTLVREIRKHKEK
KRAS Q61H, sequence (P62937 whole entry): as the sequence (P62937 whole entry) above
NRAS WT, sequence (P01111 whole entry): as the sequence (P01111 whole entry G12C) above, with C12G counted along it
NRAS WT, sequence (P62937 whole entry): as the sequence (P62937 whole entry) above

For the molecule `CCn1c(-c2cccnc2[C@H](C)OC)c2c3cc(ccc31)-c1csc(n1)C[C@H](NC(=O)[C@H](C(C)C)N(C)C(=O)N1C[C@@H]3CN(C)CC[C@@H]31)C(=O)N1CCC[C@H](N1)C(=O)OCC(C)(C)C2` [Example A481], the IC50 (as a rule, the midpoint of a concentration-inhibition curve) fell in the range of 1000 to 10000 nM on KRAS G13D (setting [1]); 100 to 1000 nM on NRAS G12C (setting [2]); 1000 to 10000 nM at KRAS G12D (setting [3]); 1000 to 10000 nM at KRAS G12S (setting [4]); 1000 to 10000 nM on KRAS G13C (setting [5]); 1000 to 10000 nM at KRAS G12V (setting [6]). Further, the IC50 at KRAS G12C (setting [7]) lay in the range of 100 to 1000 nM; at KRAS WT (setting [8]), 1000 to 10000 nM; at KRAS Q61H (setting [9]), 100 to 1000 nM; at NRAS WT (setting [10]) it was 100 to 1000 nM; at NRAS Q61K (setting [11]) it was 100 to 1000 nM; at NRAS Q61R (setting [12]), 1000 to 10000 nM. Further, the IC50 with NCI-H358 (K-Ras G12C) and in the test on Capan-1 (K-Ras G12V) was 10 to 100 nM throughout.

Turning to `CCn1c(-c2cccnc2[C@H](C)OC)c2c3cc(ccc31)-c1csc(n1)C[C@H](NC(=O)[C@H](C(C)C)N(C)C(=O)N1CC3(C1)CS(=O)(=O)CCN3C)C(=O)N1CCC[C@H](N1)C(=O)OCC(C)(C)C2` [Example A482], the IC50 at KRAS G13D (setting [1]) is 1000 to 10000 nM; at NRAS G12C (setting [2]), 100 to 1000 nM; on KRAS G12D (setting [3]), greater than 10000 nM; at KRAS G12S (setting [4]) it was 1000 to 10000 nM; on KRAS G13C (setting [5]), 1000 to 10000 nM; at KRAS G12V (setting [6]) it was 1000 to 10000 nM. Moreover, the IC50 fell in the range of 1000 to 10000 nM at KRAS G12C (setting [7]); 1000 to 10000 nM at KRAS WT (setting [8]); 100 to 1000 nM on KRAS Q61H (setting [9]); 1000 to 10000 nM on NRAS WT (setting [10]); 100 to 1000 nM on NRAS Q61K (setting [11]); 1000 to 10000 nM on NRAS Q61R (setting [12]). Also, the IC50 with NCI-H358 (K-Ras G12C) and in the test on Capan-1 (K-Ras G12V) was 100 to 1000 nM each time.

As for `CCn1c(-c2cccnc2[C@H](C)OC)c2c3cc(ccc31)-c1csc(n1)C[C@H](NC(=O)[C@H](C(C)C)N(C)C(=O)N1CCCC[C@@H](N(C)C)C1)C(=O)N1CCC[C@H](N1)C(=O)OCC(C)(C)C2` [Example A492], the IC50 at KRAS G13D (setting [1]), on NRAS G12C (setting [2]), at KRAS G12D (setting [3]), on KRAS G12S (setting [4]), at KRAS G13C (setting [5]) and on KRAS G12V (setting [6]) was 100 to 1000 nM each time. Further, the half-inhibitory concentration (IC50) fell in the range of 100 to 1000 nM on KRAS G12C (setting [7]); 100 to 1000 nM on KRAS WT (setting [8]); 10 to 100 nM on KRAS Q61H (setting [9]); 100 to 1000 nM on NRAS WT (setting [10]); 100 to 1000 nM on NRAS Q61K (setting [11]); 100 to 1000 nM on NRAS Q61R (setting [12]). For the same molecule, the IC50 in the test on NCI-H358 (K-Ras G12C) lay within 10 to 100 nM; in the test with Capan-1 (K-Ras G12V), 100 to 1000 nM.

With `CCn1c(-c2cccnc2[C@H](C)OC)c2c3cc(ccc31)-c1csc(n1)C[C@H](NC(=O)[C@H](C(C)C)N(C)C(=O)N1CCC[C@@H](N(C)C)CC1)C(=O)N1CCC[C@H](N1)C(=O)OCC(C)(C)C2` [Example A494], the IC50 at KRAS G13D (KRAS G13D FRET data IC50, KRAS G13D) fell in the range of 100 to 1000 nM; against NRAS G12C (NRAS G12C FRET data IC50, NRAS G12C) it was 10 to 100 nM; at KRAS G12D (KRAS G12D FRET data, IC50), 10 to 100 nM; on KRAS G12S (KRAS G12S FRET data, IC50) it was 10 to 100 nM; at KRAS G13C (KRAS G13C FRET data, IC50) it was 100 to 1000 nM; on KRAS G12V (KRAS G12V FRET data IC50, KRAS G12V), 100 to 1000 nM. Also, the IC50 is 10 to 100 nM against KRAS G12C (KRAS G12C FRET data, IC50); 10 to 100 nM against KRAS WT (KRAS WT FRET data IC50, KRAS WT); 10 to 100 nM against KRAS Q61H (KRAS Q61H FRET data IC50, KRAS Q61H); 10 to 100 nM against NRAS WT (NRAS WT FRET data IC50, NRAS WT); 10 to 100 nM against NRAS Q61K (NRAS Q61K FRET data IC50, NRAS Q61K); 10 to 100 nM against NRAS Q61R (NRAS Q61R FRET data IC50, NRAS Q61R). Besides, the half-inhibitory concentration (IC50) with NCI-H358 (K-Ras G12C) and in the test on Capan-1 (K-Ras G12V) was 10 to 100 nM in each case.
